Test results taken from ChEMBL document CHEMBL3600385 (Bioorg Med Chem Lett, 2015).
Active and inactive are the calls of the source. No cut-off for these calls is given here.

Assays:
[1] = biological target: Neuronal acetylcholine receptor subunit alpha-7 (Rattus norvegicus) (UniProt Q05941); experiment: Agonist activity at rat alpha-7 nicotinic acetylcholine receptor expressed in Xenopus oocytes assessed as ratio of maximum response to compound to that induced by 1 mM acetylcholine at 1 mM treated for 3 to 4 secs followed by compound washout for 4 mins by two-electrode voltage-clamp electrophysiology assay; format: cell-based
[2] = biological target: T1, Neuronal acetylcholine receptor subunit alpha-7 (Rattus norvegicus, UniProt Q05941); experiment: (§1) Antagonist activity at rat alpha-7 nicotinic acetylcholine receptor expressed in Xenopus oocytes assessed as inhibition of acetylcholine-induced currents preincubated for 10 mins followed by nicotine induction by two-electrode voltage-clamp electrophysiology assay; format: cell-based
[3] = biological target: Neuronal acetylcholine receptor subunit alpha-7 (Rattus norvegicus) (UniProt Q05941); experiment: as §1, with “of nicotine-induced current amplitudes at IC50 for” for “of”, “assay relative to control” for “assay”; format: cell-based
[4] = biological target: T1, Neuronal acetylcholine receptor subunit alpha-7
[5] = biological target: Neuronal acetylcholine receptor subunit alpha-7 (Rattus norvegicus) (UniProt Q05941)

Chain of Neuronal acetylcholine receptor subunit alpha-7 (Rattus norvegicus) (Q05941 whole entry): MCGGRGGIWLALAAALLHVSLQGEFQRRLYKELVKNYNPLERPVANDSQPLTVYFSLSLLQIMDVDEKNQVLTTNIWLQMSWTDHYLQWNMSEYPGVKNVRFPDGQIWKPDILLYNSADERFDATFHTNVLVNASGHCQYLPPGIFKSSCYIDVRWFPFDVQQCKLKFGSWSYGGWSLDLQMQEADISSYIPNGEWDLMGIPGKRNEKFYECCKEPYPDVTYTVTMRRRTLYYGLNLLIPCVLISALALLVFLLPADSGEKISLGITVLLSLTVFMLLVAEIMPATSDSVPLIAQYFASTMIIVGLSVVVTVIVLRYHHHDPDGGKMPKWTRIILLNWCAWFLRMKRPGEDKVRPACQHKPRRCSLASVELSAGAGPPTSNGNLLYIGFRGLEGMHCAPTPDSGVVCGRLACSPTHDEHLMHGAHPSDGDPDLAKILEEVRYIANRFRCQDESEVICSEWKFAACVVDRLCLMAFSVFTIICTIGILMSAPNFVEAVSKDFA
T1 sequence (Q05941 whole entry): as above

SMILES | Ratio [1] | IC50 [2] | inhibition [3] | EC50 [4] | pEC50 [5]
O=C(NC1CN2CCC1CC2)c1ccccc1F (stereo not drawn) | 0.19 | 8.07 µM | 26.5% | 56.5 µM | –
O=C(N[C@@H]1C[N+]2(CCl)CCC1CC2)c1ccccc1F | – | 39.3 µM | 33.2% | – | inactive
COc1cc(N)c(Cl)cc1C(=O)NC1CN2CCC1CC2 (stereo not drawn) [ZACOPRIDE] | 0.038 | 7.04 µM | 4.37% | – | –
O=C(N[C@H]1C[N+]2(CCl)CCC1CC2)c1ccccc1F | 0.021 | 28.4 µM | 65.7% | – | –
